US8557796B2, “Substituted 1-oxa-2,8-diaza-spiro [4,5] dec-2-ene derivatives and related treatment methods” (Gruenenthal GmbH, priority 2001, dated 2013)

Experiments:
5HT-uptake = target: T1, 5HT-uptake (Rattus norvegicus, UniProt P31652); assay: Serotonin uptake inhibition (5HT uptake) in synaptosomes; format: biochemical; conditions: rat brain synaptosomes
T1 construct: synaptosomes from rat brain regions were freshly isolated; from tissue; host or cells: P2 synaptosome fraction from rat brain regions
From the text: Tests on Serotonin Uptake (5HT Uptake Inhibition)

NA transporter = target: T2, NA transporter (Rattus norvegicus, UniProt Q9WTR4); assay: Noradrenalin uptake inhibition (NA-uptake) in synaptosomes; format: biochemical; conditions: rat hypothalamus synaptosomes
T2 construct: synaptosomes from rat brain regions were freshly isolated; from tissue; host or cells: P2 synaptosome fraction from hypothalamus of male rat brain
From the text: Tests on Noradrenalin Uptake Inhibition (NA-Uptake Inhibition)
In order to be able to carry out these in vitro studies, synaptosomes from rat brain regions were freshly isolated.

T1 sequence (P31652 whole entry): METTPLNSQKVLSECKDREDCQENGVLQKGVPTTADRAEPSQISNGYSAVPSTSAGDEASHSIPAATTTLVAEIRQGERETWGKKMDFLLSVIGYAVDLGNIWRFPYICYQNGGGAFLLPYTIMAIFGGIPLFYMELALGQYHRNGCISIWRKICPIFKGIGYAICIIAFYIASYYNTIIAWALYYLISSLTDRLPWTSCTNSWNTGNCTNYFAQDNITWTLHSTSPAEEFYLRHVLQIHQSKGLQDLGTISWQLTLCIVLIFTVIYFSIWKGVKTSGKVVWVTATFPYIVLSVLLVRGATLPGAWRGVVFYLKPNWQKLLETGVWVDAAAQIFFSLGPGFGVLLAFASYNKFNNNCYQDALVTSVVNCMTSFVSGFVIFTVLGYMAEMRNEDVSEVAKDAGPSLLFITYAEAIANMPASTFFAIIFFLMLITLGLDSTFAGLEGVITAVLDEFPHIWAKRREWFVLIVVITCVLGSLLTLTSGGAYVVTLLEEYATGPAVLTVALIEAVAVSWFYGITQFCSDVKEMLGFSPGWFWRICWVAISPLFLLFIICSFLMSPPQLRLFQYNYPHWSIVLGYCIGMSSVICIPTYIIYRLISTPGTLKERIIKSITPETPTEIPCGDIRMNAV
T2 sequence (Q9WTR4 1-597): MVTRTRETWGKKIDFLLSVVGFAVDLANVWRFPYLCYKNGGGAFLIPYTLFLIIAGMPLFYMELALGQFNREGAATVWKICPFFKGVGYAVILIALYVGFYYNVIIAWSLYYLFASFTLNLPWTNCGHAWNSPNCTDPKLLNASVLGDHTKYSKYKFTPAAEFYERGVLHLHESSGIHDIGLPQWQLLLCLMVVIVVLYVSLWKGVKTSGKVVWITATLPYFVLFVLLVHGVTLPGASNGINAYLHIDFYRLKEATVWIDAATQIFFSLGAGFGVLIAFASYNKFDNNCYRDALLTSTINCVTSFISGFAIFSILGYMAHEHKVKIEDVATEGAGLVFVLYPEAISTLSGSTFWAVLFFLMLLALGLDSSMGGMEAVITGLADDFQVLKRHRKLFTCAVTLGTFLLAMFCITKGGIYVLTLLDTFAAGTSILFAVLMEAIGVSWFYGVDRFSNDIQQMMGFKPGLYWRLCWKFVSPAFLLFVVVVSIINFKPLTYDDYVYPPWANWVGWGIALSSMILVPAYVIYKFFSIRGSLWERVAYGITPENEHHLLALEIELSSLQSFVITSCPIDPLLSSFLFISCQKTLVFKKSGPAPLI

SMILES	5HT-uptake, 10 μM, % inhibition (5HT-uptake) [%]	NA-uptake, 10 μM, % inhibition (NA transporter) [%]	inhibition at 10 µM (5HT-uptake) [%]	inhibition at 10 µM (NA transporter) [%]	other results
O=C(C1=NOC2(CCN(S(=O)(=O)c3cccs3)CC2)C1)N1CCN(C2CCCCCC2)CC1 [Example 3, (4-cycloheptyl-piperazin-l-yl)-[8-(thiophene-2-sulphonyl)-1-oxa-2,8-diaza-spiro [4,5]dec-2-en-3-yl]-methanone]	51	59	–	–	–
O=C(C1=NOC2(CCN(S(=O)(=O)c3ccc(Cl)s3)CC2)C1)N1CCN(c2ccccc2)CC1 [Example 4, [8-(5-chloro-thiophene-2-sulphonyl)-1-oxa-2,8-diaza-spiro[4,5]dec-2-en-3-yl]-(4-phenyl-piperazin-1-yl)-methanone]	–	–	54	45	–
O=C(NC1CCCC1)C1=NOC2(CCN(C(=O)c3ccc([N+](=O)[O-])cc3Cl)CC2)C1 [Example 5, 8-(2-chloro-4-nitro-benzoyl)-1-oxa-2,8-diaza-spiro[4,5]dec-2-ene-3-carboxylic acid cyclopentylamide]	–	–	59	53	–
Cc1ccc(S(=O)(=O)N2CCC3(CC2)CC(C(=O)NCCc2ccc(Cl)c(Cl)c2)=NO3)cc1 [Example 9]	75	77	–	–	–
O=C(C1=NOC2(CCN(S(=O)(=O)c3cccs3)CC2)C1)N1CCN(CCCc2ccccc2)CC1 [Example 14, [4-(3-phenyl-propyl)-piperazin-l-yl]-[8-(thiophene-2-sulphonyl)-1-oxa-2,8-diaza-spiro[4,5]dec-2-en-3-yl]-methanone]	78	70	–	–	–
CC1CCCCN1CCCNC(=O)C1=NOC2(CCN(S(=O)(=O)c3cc(Cl)ccc3Cl)CC2)C1 (stereo not shown) [Example 15, 8-(2,5-dichloro-benzenesulphonyl)-1-oxa-2,8-diaza-spiro[4,5]dec-2-ene-3-carboxylic acid[3-(2-methyl-piperidin-1-yl)-propyl]-amide]	55	41	–	–	–
Cc1cccc(N2CCN(C(=O)C3=NOC4(CCN(S(=O)(=O)c5cccs5)CC4)C3)CC2C)c1 (stereo not drawn) [Example 31, (3-methyl-4-m-tolyl-piperazin-l-yl)-[8-(thiophene-2-sulphonyl)-1-oxa-2,8-diaza-spiro[4,5]dec-2-en-3-yl]-methanone]	69	66	–	–	–
Cc1ccc(S(=O)(=O)N2CCC3(CC2)CC(C(=O)N2CCN(c4ccc(C)cc4C)CC2)=NO3)cc1 [Example 33, [4-(2,4-dimethyl-phenyl)-piperazin-l-yl]-[8-(toluene-4-sulphonyl)-1-oxa-2,8-diazaspiro[4,5]dec-2-en-3-yl]methanone]	57	42	–	–	–
Cc1ccc(F)cc1S(=O)(=O)N1CCC2(CC1)CC(C(=O)NCCN(C)C)=NO2 [Example 37, 8-(5-fluoro-2-methyl-benzenesulphonyl)-1-oxa-2,8-diaza-spiro[4,5]dec-2-ene-3-carboxylic acid (2-dimethylamino-ethyl)-amide]	–	–	70	52	–
CC(NC(=O)C1=NOC2(CCN(S(=O)(=O)c3cc(Cl)ccc3Cl)CC2)C1)C(=O)Nc1ccc2ccccc2c1 (stereo not shown) [Example 44, 8-(2,5-dichloro-benzenesulphonyl)-1-oxa-2,8-diaza-spiro[4,5]dec-2-ene-3-carboxylic acid [1-(naphthalen-2-ylcarbamoyl)-ethyl]amide]	–	–	80	48	–
O=C(NC1CCN(Cc2ccc3ccccc3c2)C1)C1=NOC2(CCN(S(=O)(=O)c3ccc(Cl)s3)CC2)C1 (stereo not shown) [Example 50, 8-(5-chloro-thiophene-2-sulphonyl)-1-oxa-2,8-diaza-spiro[4,5]dec-2-ene-3 carboxylic acid (1-naphthalen-2-ylmethyl-pyrrolidin-3-yl)-amide]	–	–	57	50	–
CCOC(=O)N1CCC(NC(=O)C2=NOC3(CCN(C(=O)C4CC4c4ccccc4)CC3)C2)CC1 (stereo not shown) [Example 55, 4-{[8-(2-phenyl-cyclopropanecarbonyl)-1-oxa-2,8-diaza-spiro[4,5]dec-2-ene-3-carbonyl]-amino}-piperidine-1-carboxylic acid ethyl ester]	–	–	65	50	–
COc1cccc(CN2CCC(NC(=O)C3=NOC4(CCN(S(=O)(=O)c5cc(Cl)ccc5Cl)CC4)C3)C2)c1 (stereo not shown) [Example 64]	61	61	–	–	–
CN(C)S(=O)(=O)N1CCC2(CC1)CC(C(=O)N1CCN(Cc3ccc4ccccc4c3)CC1)=NO2 [Example 65, 3-(4-naphthalen-2-ylmethyl-piperazine-1-carbonyl)-1-oxa-2,8-diaza-spiro[4,5]dec-2-ene-8-sulphonic acid dimethylamide]	–	–	81	63	–
Cc1ccc(S(=O)(=O)N2CCC3(CC2)CC(C(=O)NC2CCCC2OCc2ccccc2)=NO3)cc1 (stereo not shown) [Example 67, 8-(toluene-4-sulphonyl)-1-oxa-2,8-diaza-spiro[4,5]dec-2-ene-3-carboxylic acid (2-benzyloxy-cyclopentyl)-amide]	–	–	58	–	NA-uptake, 10 μM, % inhibition (NA transporter; 10 µM): 59%
O=C(C1=NOC2(CCN(S(=O)(=O)Cc3ccccc3)CC2)C1)N1CCN(CCCc2ccccc2)CC1 [Example 69]	63	56	–	–	–
Cc1ccc(S(=O)(=O)N2CCC3(CC2)CC(C(=O)NC2CCCC2OCc2ccccc2)=NO3)cc1 (stereo not shown) [Example 73, 8-(toluene-4-sulphonyl)-1-oxa-2,8-diaza-spiro[4,5]dec-2-ene-3-carboxylic acid (2-benzyloxy-cyclopentyl)-amide]	–	–	–	–	5HT-uptake, 10 μM, % inhibition (5HT-uptake; 10 µM): 46%; NA-uptake, 10 μM, % inhibition (NA transporter; 10 µM): 93%
O=C(NCC1CC1)C1=NOC2(CCN(C(=O)c3cccc(Cl)c3Cl)CC2)C1 [Example 157, 8-(2,3-dichloro-benzoyl)-1-oxa-2,8-diaza-spiro[4,5]dec-2-ene-3-carboxylic acid cyclopropylmethyl-amide]	–	–	52	–	–
CCCCCC(=O)N1CCC2(CC1)CC(C(=O)NCC1CC1)=NO2 [Example 158, 8-hexanoyl-1-oxa-2,8-diaza-spiro[4,5]dec-2-ene-3-carboxylic acid cyclopropylmethyl-amide]	–	–	42	–	–
Cc1ccc(C(=O)N2CCC3(CC2)CC(C(=O)NCC2CC2)=NO3)c(F)c1F [Example 159, 8-(2,3-difluoro-4-methyl-benzoyl)-1-oxa-2,8-diaza-spiro[4,5]dec-2-ene-3-carboxylic acid cyclopropylmethyl-amide]	–	–	40	–	–
COc1ccc(OC)c(CN(Cc2ccco2)C(=O)C2=NOC3(CCN(S(=O)(=O)c4ccc(F)cc4)CC3)C2)c1 [Example 160]	50	–	–	–	–
CCSCCNC(=O)C1=NOC2(CCN(S(=O)(=O)N(C)C)CC2)C1 [Example 161]	44	–	–	–	–
COc1cccc(CNC(=O)C2=NOC3(CCN(S(=O)(=O)c4ccc(OC(F)(F)F)cc4)CC3)C2)c1 [Example 162, 8-(4-trifluoromethoxy-benzenesulphonyl)-1-oxa-2,8-diaza-spiro[4,5]dec-2-ene-3-carboxylic acid 3-methoxy-benzylamide]	–	–	40	–	–
